Results published in US9365853B2, “Matriptase inhibitors and uses thereof against orthomyxoviridae infections” (priority 2011, dated 2016).
Read-outs that look alike come from different tables or passages of the source. Where a SMILES comes first, the peptide text is derived from it. The star is where a group is joined. X1 = N=C(N)NCCC[C@@H](N*)C(=O)c1nc2ccccc2s1; CH2Cl = ClC*

Columns and labels:
[1] = target: T1, matriptase (Homo sapiens (Human), UniProt Q9Y5Y6); experiment: Ki determination for matriptase (Morrison tight-binding or mixed model, fluorogenic Boc-Gln-Ala-Arg-AMC); assay type: biochemical; conditions: for reduced potency (lower inhibition) compared to compound 1: matriptase Ki relative to compound 1
[2] = target: furin (Homo sapiens (Human), UniProt P09958); experiment: Ki determination, selectivity profile: furin (Boc-Arg-Arg-Val-Arg-AMC); assay type: biochemical; conditions: furin (protease #7); NI = no inhibition, 10 μM
Chain of furin (P09958 108-794 limits assumed): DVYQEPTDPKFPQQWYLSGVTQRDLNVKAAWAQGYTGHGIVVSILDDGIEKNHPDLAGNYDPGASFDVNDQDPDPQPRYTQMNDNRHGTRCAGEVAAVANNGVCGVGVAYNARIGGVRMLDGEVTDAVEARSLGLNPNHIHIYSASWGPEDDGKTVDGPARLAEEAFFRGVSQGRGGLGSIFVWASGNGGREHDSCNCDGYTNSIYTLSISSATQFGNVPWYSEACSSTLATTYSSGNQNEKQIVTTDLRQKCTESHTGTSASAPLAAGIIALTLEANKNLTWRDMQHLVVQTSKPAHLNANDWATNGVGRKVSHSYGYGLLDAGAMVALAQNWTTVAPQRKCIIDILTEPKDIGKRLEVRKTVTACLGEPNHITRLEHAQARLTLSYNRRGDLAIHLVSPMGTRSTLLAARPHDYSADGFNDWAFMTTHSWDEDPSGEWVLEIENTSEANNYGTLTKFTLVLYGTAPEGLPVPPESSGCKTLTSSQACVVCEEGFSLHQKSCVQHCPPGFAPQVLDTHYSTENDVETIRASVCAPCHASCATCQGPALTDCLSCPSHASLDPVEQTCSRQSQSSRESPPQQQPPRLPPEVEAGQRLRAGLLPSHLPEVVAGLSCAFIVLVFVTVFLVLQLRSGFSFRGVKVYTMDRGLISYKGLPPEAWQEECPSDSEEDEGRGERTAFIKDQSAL

[3] = target: Recombinant purified human matriptase (amino acids 596-855) (Homo sapiens (Human), UniProt Q9Y5Y6); experiment: biochemical; assay type: biochemical
Chain of Recombinant purified human matriptase (amino acids 596-855) (Q9Y5Y6 596-855 limits assumed): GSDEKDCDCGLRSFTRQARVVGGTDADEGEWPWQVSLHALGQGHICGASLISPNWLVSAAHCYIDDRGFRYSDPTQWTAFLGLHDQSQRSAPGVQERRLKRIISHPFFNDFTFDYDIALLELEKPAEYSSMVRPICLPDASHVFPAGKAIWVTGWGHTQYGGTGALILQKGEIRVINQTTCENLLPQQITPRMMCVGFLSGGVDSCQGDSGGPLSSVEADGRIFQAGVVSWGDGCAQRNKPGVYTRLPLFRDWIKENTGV

[4] = target: T1, matriptase; experiment: Matriptase inhibition in cellulo (HEK293 transfected with pcDNA3.1-matriptase, activity in media); assay type: cell-based; conditions: HEK293, 24 h incubation, read-out: inhibition of matriptase activity in cultured cells
Protocol: Human embryonic kidney cells (HEK293) were transfected with 6 μg of pcDNA3.1™ (Mock) or pcDNA3.1™-matriptase (Matriptase) using Lipofectamine 2000™ reagent (Invitrogen) in 10-cm plates. […] After 24 h incubation, media was incubated with Boc-Gln-Ala-Arg-AMC substrate (50 μM) and fluorescence measured for 20 minutes at 37° C. Enzyme activity was determined in terms of released fluorescence units per minutes per μl of media for each condition.

[5] = tested on: influenza A/Puerto Rico/8/34 virus; assay type: cell-based, influenza A/Puerto Rico/8/34 virus (PR8)
[6] = tested on: influenza A/Puerto Rico/8/34 virus; assay type: cell-based, influenza A/Puerto Rico/8/34 virus (PR8); remark: listed apart in the source
[7] = tested on: influenza A/Puerto Rico/8/34; assay type: cell-based, influenza A/Puerto Rico/8/34 (H1N1)
[8] = target: T1, matriptase; experiment: siRNA knock-down of matriptase protein expression in Calu-3 cells (Western blot, densitometry); assay type: cell-based; conditions: Calu-3, 50 nmol siRNA, 1.5 μl Lipofectamine RNAiMAX, 48 h after transfection
Protocol: Using RNA interference technology, siRNAs specific to human matriptase were targeted in these cells. Calu-3 cells were transfected with two different siRNAs (50 nmol, S1: s13520 (Ambion) Silencer® Select siRNAs gene symbol ST14; S2: EHU012511 (Sigma-Aldrich) MISSION® esiRNA targeting human ST14 (esiRNA1)) targeted toward matriptase mRNA (target sequence of EHU012511: […] […] […] […] (SEQ ID NO:5)) using various concentrations of Lipofectamine RNAiMAX™ (0.5 to 1.5 μl). Scrambled siRNAs were used as controls. 48 h after transfection, cellular protein extracts were prepared. Extracts were subjected to polyacrylamide gel electrophoresis (SDS-PAGE) and transferred to nitrocellulose membranes. Membranes were probed for matriptase protein expression using a rabbit anti-human matriptase-specific antibody. Membranes were blocked using non-fat dry milk in Tris-Buffered Saline (TBS) with Tween™ 20. Membranes were then labeled with a rabbit anti-human matriptase-specific antibody (Bethyl Laboratories Inc.).

[9] = target: T1, matriptase; experiment: Dissociation of enzyme:inhibitor complex by dilution recovery experiments; assay type: biochemical; conditions: matriptase 0.5 μM pre-incubated 20 minutes, diluted 1:2000
Protocol: Dissociation of the enzyme-inhibitor (EI) complex was investigated using dilution recovery experiments. […] Complexes were rapidly (1:2000) diluted in a reaction buffer containing 400 μM of Boc-Gln-Ala-Arg-AMC (˜7 times Km). Activity was continuously recorded for 75 minutes and fluorescence plotted as a function of time.

C[C@H](NC(=O)[C@H](CCC(N)=O)NC(=O)[C@@H](N)CCCNC(=N)N)C(=O)N[C@@H](CCCNC(=N)N)C(O)c1nc2ccccc2s1 (mixture of isomers) [Compound 2, 2-(2-amino-5-carbamimidamidopentanamido)-N-(1-{[1-(1,3-benzothiazol-2-yl)-5-carbamimidamido-1-hydroxypentan-2-yl]carbamoyl}ethyl)pentanediamide]
Ki [1]: 6.1 µM

C[C@H](NC(=O)[C@H](CCC(N)=O)NC(=O)[C@@H](N)CCCNC(=N)N)C(=O)N[C@@H](CCCNC(=N)N)C(=O)c1nc2ccccc2s1 [Compound 1, RQAR-ketobenzothiazole]
Ki (nM) [2]: no inhibition | inhibition of matriptase activity [3]: almost completely | inhibition at 1 µM ([4]; 1 μM): ~50% | inhibition at 10 µM ([4]; 10 μM): ~100% | influenza replication supported by matriptase ([5]; 1 μM): completely abrogate | influenza replication supported by matriptase ([5]; 10 μM): completely abrogate | effect on influenza replication with trypsin as the activating protease [6]: no effect | block of influenza replication [7]: more than 50%

CC(NC(=O)C(CCC(N)=O)NC(=O)C(N)CCCNC(=N)N)C(=O)NC(CCCNC(=N)N)C(O)c1nc2ccccc2s1 (centres unmarked) [Compound 2, 2-(2-amino-5-carbamimidamidopentanamido)-N-(1-{[1-(1,3-benzothiazol-2-yl)-5-carbamimidamido-1-hydroxypentan-2-yl]carbamoyl}ethyl)pentanediamide]
matriptase protein expression [8]: significantly blocked

CC(NC(=O)C(CCC(N)=O)NC(=O)C(N)CCCNC(=N)N)C(=O)NC(CCCCN)C(=O)c1nc2ccccc2s1 (centres unmarked) [Compound 3, N-(1-{[6-amino-1-(1,3-benzothiazol-2-yl)-1-oxohexan-2-yl]carbamoyl}ethyl)-2-(2-amino-5-carbamimidamidopentanamido)pentanediamide]
decrease of the Ki relative to compound 1 [1]: about 3 orders of magnitude | inhibition at 1 µM ([3]; read-out: inhibition of matriptase activity): ~25%

CC(=O)NC(CCCNC(=N)N)C(=O)c1nc2ccccc2s1 (centres unmarked) [Compound 6, N-[1-(1,3-benzothiazol-2-yl)-5-carbamimidamido-1-oxopentan-2-yl]acetamide]
Ki [1]: 0.457 µM | mode of inhibition ([1]; matriptase): mixed mode of inhibition | reduced potency (lower inhibition) compared to compound 1 [1]: over 30,000 fold

C[C@H](NC(=O)[C@H](CCC(N)=O)NC(=O)[C@@H](N)CCCNC(=N)N)C(=O)N[C@@H](CC(=O)O)C(=O)N[C@H](CCCNC(=N)N)C(=O)c1nc2ccccc2s1 [Compound 7] (H-RQAD-X1)
reduced potency (lower inhibition) compared to compound 1 [1]: 400 fold

N=C(N)NCCC[C@H](NC(=O)CNC(=O)[C@@H](N)CCC(=O)O)C(=O)CCl [EGR-CMK, Glu-Gly-Arg chloromethyl ketone] (H-Glu-Gly-Arg-CH2Cl)
dissociation of enzyme:inhibitor complex (reversibility) [9]: irreversible inhibition
